According to US20120135923A1, “Use of Melanocortins to Treat Dyslipidemia” (IPSEN PHARMA, S.A.S., priority 2009, published 2012):
Read-outs that look alike come from different tables or passages of the source. Bridge positions count the residues as written; N and C are the ends. Square brackets hold non-standard residues; d marks the D form. Peptide text beside a SMILES is read from it. d2Nal = N[C@H](Cc1ccc2ccccc2c1)C(=O)O; Bta = N[C@@H](Cc1csc2ccccc12)C(=O)O; GABA = NCCCC(=O)O; βAla = NCCC(=O)O

Experiments:
[1] = biological target: T1, hMC1-R (Homo sapiens, UniProt Q01726); test: Radioligand binding assay, [125I]-NDP-α-MSH competition, CHO-K1 membranes; details: Table 5; read-out: Ki hMC1-R
T1 construct: expressed in transfected cells; host or cells: CHO-K1
T1 sequence (Q01726 whole entry): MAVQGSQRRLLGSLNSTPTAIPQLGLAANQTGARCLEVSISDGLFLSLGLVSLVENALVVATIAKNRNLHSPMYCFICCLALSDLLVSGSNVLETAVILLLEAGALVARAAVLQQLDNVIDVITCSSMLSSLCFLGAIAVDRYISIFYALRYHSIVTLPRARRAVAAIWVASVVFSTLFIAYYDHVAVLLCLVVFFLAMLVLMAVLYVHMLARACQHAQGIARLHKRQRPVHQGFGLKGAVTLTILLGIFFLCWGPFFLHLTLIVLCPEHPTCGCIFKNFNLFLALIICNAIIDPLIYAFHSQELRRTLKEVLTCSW
Protocol: (§1) Cellular membranes used for the in vitro receptor binding assays were obtained from transgenic CHO-K1 cells stably expressing hMC-R receptor subtypes 1, 3, 4 or 5. […] The pellets were resuspended in the same buffer and centrifuged at 50,000 g for 10 minutes at approximately 4° C. The washed pellets containing the cellular membranes were stored at approximately −80° C.
(§2) Cell membranes (1-10 μg protein/well) prepared as described above were incubated in 50 mM Tris-HCl at pH 7.4 containing 0.2% bovine serum albumin (BSA), 5 mM MgCl2, 1 mM CaCl2 and 0.1 mg/mL bacitracin, with increasing concentrations of the test compound and 0.1-0.3 nM [^25I]-NDP-α-MSH for approximately 90-120 minutes at approximately 37° C. […] Filters were washed three times with 50 mM Tris-HCl at pH 7.4 at a temperature of approximately 0-4° C. and then assayed for radioactivity using a Packard Topcount® scintillation counter. Binding data were analyzed by computer-assisted non-linear regression analysis (XL fit; IDBS).

[2] = biological target: T2, hMC3-R (Homo sapiens, UniProt P41968); test: cyclic AMP bioassay (ECL) in CHO-K1 cells; format: cell-based
T2 construct: expressed in transfected cells; host or cells: CHO-K1
T2 sequence (P41968 whole entry): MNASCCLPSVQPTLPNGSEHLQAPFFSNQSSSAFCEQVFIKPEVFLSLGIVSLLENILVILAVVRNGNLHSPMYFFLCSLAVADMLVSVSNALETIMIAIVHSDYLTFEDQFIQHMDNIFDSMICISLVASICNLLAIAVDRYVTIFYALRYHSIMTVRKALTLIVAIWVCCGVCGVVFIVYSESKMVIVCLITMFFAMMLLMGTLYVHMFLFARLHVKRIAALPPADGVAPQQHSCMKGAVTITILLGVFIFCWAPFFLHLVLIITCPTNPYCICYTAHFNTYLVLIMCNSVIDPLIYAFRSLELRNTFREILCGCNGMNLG

[3] = biological target: T3, hMC4-R (Homo sapiens, UniProt P32245); test: cyclic AMP bioassay (ECL) in CHO-K1 cells; format: cell-based
T3 construct: expressed in transfected cells; host or cells: CHO-K1
T3 sequence (P32245 whole entry): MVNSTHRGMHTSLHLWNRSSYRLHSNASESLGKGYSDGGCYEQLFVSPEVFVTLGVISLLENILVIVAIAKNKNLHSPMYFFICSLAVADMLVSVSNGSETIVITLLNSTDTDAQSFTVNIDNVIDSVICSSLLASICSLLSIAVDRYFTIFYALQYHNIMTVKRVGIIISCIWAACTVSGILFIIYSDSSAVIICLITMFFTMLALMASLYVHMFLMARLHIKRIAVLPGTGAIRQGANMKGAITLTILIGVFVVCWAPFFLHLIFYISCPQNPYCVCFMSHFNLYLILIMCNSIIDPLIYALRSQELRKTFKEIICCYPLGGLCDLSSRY

[4] = biological target: T1, hMC1-R; test: cyclic AMP bioassay (ECL) in CHO-K1 cells; format: cell-based
Protocol: (§3) Intracellular cyclic AMP (cAMP) levels were determined by an electrochemiluminescence (ECL) assay (Meso Scale Discovery®, Gaithersburg, Md.; referred to hereinafter as MSD). […] Transgenic CHO-K1 cells stably expressing hMC receptor subtypes 1, 3, 4 or 5 were dispensed at a density of approximately 7,000 cells/well in 384-well Multi-Array®plates (MSD) containing integrated carbon electrodes and coated with anti-cAMP antibody. Increasing concentrations of the test compounds were added and the cells were incubated for approximately 40 minutes at approximately 37° C. […] At the end of the second incubation period read buffer (Tris-buffered solution containing an ECL co-reactant and Triton X-100 at ph 7.8) was added and the cAMP levels in the cell lysates were immediately determined by ECL detection with a Sector Imager 6000 Reader® (MSD). Data were analyzed using a computer-assisted non-linear regression analysis (XL fit; IDBS) and reported as either an EC50 value or a Kb value.
(§4) The Kb value reflects the potency of an antagonist and is determined by Schild analysis. In brief, concentration-response curves of an agonist are carried out in the presence of increasing concentrations of an antagonist. […] It is calculated by extrapolating the line on a Schild plot to zero on the y-axis.

[5] = biological target: T4, hMC5-R (Homo sapiens, UniProt P33032); test: cyclic AMP bioassay (ECL) in CHO-K1 cells; format: cell-based
T4 construct: expressed in transfected cells; host or cells: CHO-K1
T4 sequence (P33032 whole entry): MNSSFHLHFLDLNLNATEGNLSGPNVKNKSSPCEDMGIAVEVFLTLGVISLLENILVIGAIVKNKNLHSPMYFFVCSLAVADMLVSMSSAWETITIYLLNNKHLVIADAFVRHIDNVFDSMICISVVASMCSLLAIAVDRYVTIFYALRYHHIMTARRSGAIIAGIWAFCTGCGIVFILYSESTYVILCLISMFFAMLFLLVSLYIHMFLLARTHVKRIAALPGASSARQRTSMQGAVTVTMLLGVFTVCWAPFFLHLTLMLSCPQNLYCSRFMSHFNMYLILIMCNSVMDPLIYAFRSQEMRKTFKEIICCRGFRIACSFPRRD
Protocol: as §3, §4

[6] = biological target: T4, hMC5-R; test: Radioligand binding assay, [125I]-NDP-α-MSH competition, CHO-K1 membranes
Protocol: as §1, §2

[7] = antagonist potency by Schild analysis, cAMP, CHO-K1 cells expressing hMC3-R, read-out: Kb hMC3-R
[8] = antagonist potency by Schild analysis, cAMP, CHO-K1 cells expressing hMC4-R, read-out: Kb hMC4-R
[9] = cAMP, CHO-K1 cells expressing hMC1-R, read-out: EC50 hMC1-R
[10] = cAMP, CHO-K1 cells expressing hMC5-R, read-out: EC50 hMC5-R

Row | Structure (SMILES) | Kb [2, 7] | Kb [3, 8] | EC50 [4, 9] | EC50 [5, 10] | Ki ([6]; Table 6, read-out: Ki hMC5-R) | EC50 [4] | EC50 [5] | also measured
1 | CC(=O)N[C@H](C(=O)N[C@H]1CSSC[C@@H](C(N)=O)NC(=O)CCCNC(=O)[C@H](Cc2c[nH]c3ccccc23)NC(=O)[C@H](CCCNC(=N)N)NC(=O)[C@@H](Cc2ccccc2)NC(=O)[C@H](Cc2c[nH]cn2)NC1=O)C(C)C [Ac-Val-c(Cys-His-D-Phe-Arg-Trp-Gaba-Cys)-NH2] (Ac-VCH[dF]RW[GABA]C-NH2; disulfide 2-8 (inferred)) |  |  |  |  |  |  |  | Ki [1]: 0.256 nM
2 | CC(=O)N[C@H]1CSSC[C@@H](C(=O)N2CCC[C@H]2C(=O)N2CCC[C@H]2C(=O)N[C@@H](CCCCN)C(=O)N[C@@H](CC(=O)O)C(=O)NCCC(=O)NCC(=O)N[C@@H](CCCNC(=N)N)C(=O)N[C@@H](CCCNC(=N)N)C(=O)N[C@@H](CCCNC(=N)N)C(=O)N[C@@H](CCCNC(=N)N)C(=O)N[C@@H](CCCNC(=N)N)C(=O)N[C@@H](CCC(N)=O)C(=O)N[C@@H](CCCNC(=N)N)C(=O)N[C@@H](CCCNC(=N)N)C(=O)N[C@@H](CCCNC(=N)N)C(N)=O)NC(=O)[C@H](C)NC(=O)[C@H](Cc2csc3ccccc23)NC(=O)[C@H](CCCNC(=N)N)NC(=O)[C@@H](Cc2ccc3ccccc3c2)NC(=O)[C@H](Cc2c[nH]cn2)NC(=O)[C@H](CCC(=O)O)NC1=O (Ac-CEH[d2Nal]R[Bta]ACPPKD[βAla]GRRRRRQRRR-NH2; disulfide 1-8) | 104 nM | 32 nM | 146 nM | 1400 nM | 165 nM |  |  | 
3 | CC(=O)N[C@@H](CCCNC(=N)N)C(=O)N[C@H]1CC(=O)NCCCC[C@@H](C(N)=O)NC(=O)[C@H](C)NC(=O)[C@H](Cc2c[nH]c3ccccc23)NC(=O)[C@H](CCCNC(=N)N)NC(=O)[C@@H](Cc2ccccc2)NC(=O)[C@H](Cc2c[nH]cn2)NC1=O [Ac-Arg-c(Asp-His-D-Phe-Arg-Trp-Ala-Lys)-NH2] |  |  |  |  |  |  |  | EC50 ([2]; Table 9A/9B, read-out: EC50 hMC3-R): 2.89 nM; EC50 ([3]; Table 9A/9B, read-out: EC50 hMC4-R): 0.055 nM; EC50 ([4]; Table 9A/9B, read-out: EC50 hMC1-R): 1.39 nM; EC50 ([5]; Table 9A/9B, read-out: EC50 hMC5-R): 467 nM; Ki ([6]; Table 5, read-out: Ki hMC5-R): 783 nM
4 | CC(=O)N[C@H]1CSSC[C@@H](C(=O)N2CCC[C@H]2C(=O)N2CCC[C@H]2C(=O)N[C@@H](CCCCN)C(=O)N[C@@H](CC(=O)O)C(=O)NCCC(=O)NCC(=O)N[C@@H](CCCNC(=N)N)C(=O)N[C@@H](CCCCN)C(=O)N[C@@H](CCCNC(=N)N)C(=O)N[C@@H](CCCNC(=N)N)C(=O)N[C@@H](CCCNC(=N)N)C(=O)N[C@@H](CCC(N)=O)C(=O)N[C@@H](CCCNC(=N)N)C(=O)N[C@@H](CCCNC(=N)N)C(=O)N[C@@H](CCCNC(=N)N)C(N)=O)NC(=O)[C@H](C)NC(=O)[C@H](Cc2csc3ccccc23)NC(=O)[C@H](CCCNC(=N)N)NC(=O)[C@@H](Cc2ccc3ccccc3c2)NC(=O)[C@H](Cc2c[nH]cn2)NC(=O)[C@H](CCC(=O)O)NC1=O |  |  |  |  |  | 32.2 nM | 194 nM | Kb [2]: 98.3 nM; Kb [3]: 5.23 nM; Ki ([6]; Ki hMC5-R, Table 6): 15.5 nM
5 | CC(=O)N[C@H]1CSSC[C@@H](C(=O)N2CCC[C@H]2C(=O)N2CCC[C@H]2C(=O)N[C@@H](CCCCN)C(=O)N[C@@H](CC(=O)O)C(=O)NCCC(=O)N[C@@H](Cc2ccc(O)cc2)C(=O)NCC(=O)N[C@@H](CCCNC(=N)N)C(=O)N[C@@H](CCCCN)C(=O)N[C@@H](CCCCN)C(=O)N[C@@H](CCCNC(=N)N)C(=O)N[C@@H](CCCNC(=N)N)C(=O)N[C@@H](CCC(N)=O)C(=O)N[C@@H](CCCNC(=N)N)C(=O)N[C@@H](CCCNC(=N)N)C(=O)N[C@@H](CCCNC(=N)N)C(N)=O)NC(=O)[C@H](C)NC(=O)[C@H](Cc2csc3ccccc23)NC(=O)[C@H](CCCNC(=N)N)NC(=O)[C@@H](Cc2ccc3ccccc3c2)NC(=O)[C@H](Cc2c[nH]cn2)NC(=O)[C@H](CCC(=O)O)NC1=O | 112 nM | 41.1 nM | 37.9 nM | 1800 nM | 15.3 nM |  |  | 
6 | C[C@H]1NC(=O)[C@@H](NC(=O)CN2C(=O)N[C@@H](CCCNC(=N)N)C2=O)CSSC[C@@H](C(N)=O)NC(=O)[C@H](Cc2c[nH]c3ccccc23)NC(=O)[C@H](CCCNC(=N)N)NC(=O)[C@@H](Cc2ccc3ccccc3c2)NC(=O)[C@H](Cc2cnc[nH]2)NC1=O [Hydantoin(C(O)-(Arg-Gly))-c(Cys-D-Ala-His-D-2-Nal-Arg-Trp-Cys)-NH2] |  |  |  |  |  | 96.6 nM | 103 nM | EC50 [2]: 13.1 nM; EC50 [3]: 21.2 nM; Ki ([6]; Ki hMC5, Table 7): 14.6 nM
